{"source": "patent US20050202101A1", "about": "“Method and composition for preventing or reducing the symptoms of insulin resistance syndrome” (Interhealth Nutraceuticals Incorporated, priority 2001, published 2005)", "origin": "cited, not measured here", "test_system": "obese women", "settings": "with exercise"}
{"substance": "chromium picolinate", "values": [{"measurement": "body weight change", "value": "significant weight gain"}]}
